System: P. acnes (ATCC 6919)
Assay: TKC (Time Kill Curve) determination
Format: cell-based, Propionibacterium acnes
Procedure: Each strain was plated on appropriate plate and grown in the appropriate conditions. Colonies were resuspended in 5 mL of PBS to obtain a 0.5 McFarland O D (approximately 1.10^8 cfu/ml).After two days, the bacterial concentrations we readjusted in reinforced clostridial broth to obtain a solution at 1.10^6 CFU/ml (5.10^4 CFU/well). […] Bacteria quantification has been repeated at […]. For bacteria quantification a Colony counter IUL instruments, flash and go model was used. A Time Kill Curve (TKC) was performed to determine the effect of the active versus placebo on the growth of Propionibacterium acnes.

O=c1c2cc(O)c(O)cc2oc2cc(O)c([C@@H]3O[C@H](CO)[C@@H](O)[C@H](O)[C@H]3O)c(O)c12 [pool mangiferin]
Time Kill Curve P. acnes, bacteria quantification (0.5%, T0): 6.0 Log10 CFU/ml | Time Kill Curve P. acnes, bacteria quantification (0.5%, T + 4 h): 6.2 Log10 CFU/ml | Time Kill Curve P. acnes, bacteria quantification (0.5%, T + 8 h): 5.7 Log10 CFU/ml | Time Kill Curve P. acnes, bacteria quantification (0.5%, T + 24 h): 6.6 Log10 CFU/ml | Time Kill Curve P. acnes, bacteria quantification (0.5%, T + 32 h): 6.7 Log10 CFU/ml | Time Kill Curve P. acnes, bacteria quantification (0.5%, T + 48 h): 7.8 Log10 CFU/ml | Time Kill Curve P. acnes, bacteria quantification (1%, T0): 6.0 Log10 CFU/ml | Time Kill Curve P. acnes, bacteria quantification (1%, T + 4 h): 6.0 Log10 CFU/ml | Time Kill Curve P. acnes, bacteria quantification (1%, T + 8 h): 5.8 Log10 CFU/ml | Time Kill Curve P. acnes, bacteria quantification (1%, T + 24 h): 6.5 Log10 CFU/ml | Time Kill Curve P. acnes, bacteria quantification (1%, T + 32 h): 6.7 Log10 CFU/ml | Time Kill Curve P. acnes, bacteria quantification (1%, T + 48 h): 7.8 Log10 CFU/ml | Time Kill Curve P. acnes, bacteria quantification (2%, T0): 6.0 Log10 CFU/ml | Time Kill Curve P. acnes, bacteria quantification (2%, T + 4 h): 5.7 Log10 CFU/ml | Time Kill Curve P. acnes, bacteria quantification (2%, T + 8 h): 5.7 Log10 CFU/ml | Time Kill Curve P. acnes, bacteria quantification (2%, T + 24 h): 6.5 Log10 CFU/ml | Time Kill Curve P. acnes, bacteria quantification (2%, T + 32 h): 6.7 Log10 CFU/ml | Time Kill Curve P. acnes, bacteria quantification (2%, T + 48 h): 7.8 Log10 CFU/ml

— patent US20250352458A1, “IMPROVEMENTS IN OR RELATING TO EXTRACTS” (Givaudan SA, priority 2020, published 2025)
